Laboratory results published in US11541056B2, “3-hydroxy-N-(3-(7H-pyrrolo[2,3-d]pyrimidin-4-yl)phenyl)pyrrolidine-1-carboxamide derivatives” (NOVARTIS AG, priority 2018, dated 2023).
Like-named read-outs stand apart in the source and are kept apart here.

Tests used:
Type in all cases: cell-based
[1] = target: T1, BTK-GFP (Homo sapiens, UniProt Q06187+Q96SW2); test: BTK-GFP protein abundance flow cytometry assay in HEK293A cells; conditions: 24 h; for BTK deg Amax %: % protein remaining at concentration of maximum degradation; for DC50: concentration at which 50% maximal degradation was observed
T1 construct: the BTK open reading frame (ORF) was first shuttled from a pcDNA-DEST40-BTK vector (Invitrogen library ID INV_20090504v1); expressed in transfected cells; host or cells: HEK293A cells (Invitrogen R70507), lentiviral transduction with pLenti6-BTK-GFP-Ires-RFP, blasticidin-selected
Method: (§1) Compounds of the invention were tested in the following cellular assays. The terms in Table 1 are defined as follows: DC50 refers to the concentration at which 50% maximal degradation was observed; deg Amax is the extent of degradation and the value refers to the % protein remaining at the concentration at which maximum degradation is seen; Prol GI50 refers to the proliferation data and defines the concentration at which 50% growth inhibition was observed compared to the vehicle treated control at the end of the incubation time. TMD8 cells are BTK dependent and OCI-LY3 cells are BTK independent.
BTK-GFP and IKZF3-GFP Protein Abundance Flow Cytometry Assay in HEK293A Cells:
Degradation of BTK or IKZF3 was measured in HEK293A cells (Invitrogen R70507) expressing either BTK-GFP and RFP or IKZF3-GFP and RFP from a stably integrated bicistronic BTK-GFP-iresRFP or IKZF3-GFP-iresRFP construct, respectively. Reduction of the GFP signal measured by flow cytometry served as readout for BTK or IKZF3 degradation after degrader treatment.
Stable HEK293A-BTK-GFP-iresRFP cells were maintained in complete growth medium (DMEM high Glucose+10% FCS+1% L-Glutamine+1% NEAA+1% NaPyr.) with passaging performed twice per week. On Day 0, HEK293A-BTK-GFP-iresRFP or HEK293A-IKZF3-GFP-iresRFP and HEK293A-iresRFP cells were seeded at 10,000 cells/well in a 96-well microtiter plate in 260 μl complete medium. On Day 1, cells were treated in duplicate with 10-point 1:3 dilution series of compound using the HP D300 Digital Dispenser (Tecan). DMSO concentrations were normalized across the plate to 0.1%. On Day 2, after 24 h of incubation at 37° C., treatment media was discarded, cells rinsed with 100 ul/well PBS and then detached using 40 ul trypsin/well for 5 min. Trypsin was neutralized with 100 ul/well PBS+20% FCS). Flow cytometry was performed on the samples using the BD FACS CANTO II (Becton Dickinson). Cell identification was then performed using forward (FSC) vs. side scatter (SSC) plots. Single cell discrimination is performed using SSC-Width (SSC-W) vs. SSC-Height (SSC-H) plots. Median GFP values for 5,000 single cells are used to determine BTK levels. Median GFP values from HEK293A-iresRFP are used as a background signal and thus defining 0% BTK signal. Median GFP values from DMSO treated HEK293A-BTK-GFP-iresRFP or HEK293A-IKZF3-GFP-iresRFP are used to define 100% BTK signal for subsequent DC50 curves (concentration at 50% BTK degradation). GFP and RFP are read in the channels called FITC and PE, respectively.
Concentration response curves plotting relative reduction of the GFP signal (measured by flow cytometry) versus 10 compound concentrations (starting concentration 10 μM, 3 fold dilution steps) of the compounds allowed generation of DC50 values.

[2] = system: OCI-LY3 cells; test: Resazurin cell viability assay in DLBCL cells (OCI-LY3); conditions: OCI-LY3 cells (BTK independent), 50% growth inhibition, read-out: OCI-LY3 Prol GI50
Method: as §1
(§2) Cell Viability Assay in DLBCL (Diffuse Large B-Cell Lymphoma) Cells:
(§3) The effect of the BTK compounds on cell proliferation was measured by a Resazurin (Sigma, #R7017) based cell viability assay. TMD8 (BTK compound sensitive) and OCI-LY3 (BTK compound insensitive) cells were incubated for 72 h at 37° C. and 5% CO2 with the corresponding compound. Resazurin is a non-toxic, cell-permeable substrate that is virtually non-fluorescent. Upon entering living cells, Resazurin (Sigma, #R7017) is reduced to highly fluorescent Resorufin. The metabolic activity was assessed by measuring the fluorescence signal (ex. 530 nm; em. 600 nm).
(§4) TMD8 and OCI-Ly3 cells were seeded at day 0 in triplicates at a cell density of 1×10^4 cells per 150 μl/well in a 96-well plate (Costar #3904). Additional plates were prepared, in order to assess the basal metabolic activity of both cell lines at the beginning of the experiment. For these reference plates, Resazurin (Sigma, #R7017) was added to a final concentration of 13 μg/ml 3 h post seeding and was incubated for 2 h at 37° C. and 5% CO2. Following incubation, the fluorescent signal intensity of the 96-well plates was measured on a Mithras LB940 multimode plate reader at 530/600 nm (Berthold Technologies, Germany).
(§5) In parallel, 3 h post-seeding, test-plates were treated with compound at various concentrations, or with vehicle (DMSO) alone for 3 days. The compound addition to the plates was performed by using a HP D300 digital dispenser (TECAN, Switzerland). The compounds were tested in triplicate, 8-point serial dilution (1:4), with a start concentration of 10 μM for OCI-LY3 and 1 μM for the TMD8 cells, respectively. To assess the relative proliferation of the cells, Resazurin was added to each well directly to the medium to a final concentration of 13 μg/ml. The plates were incubated for 2 h at 37° C. and 5% CO2 to result in a 72 h endpoint. Following incubation, the fluorescent signal intensity of the 96-well plates were measured on a Mithras LB940 multimode plate reader at 530/600 nm (Berthold Technologies, Germany). The formation of Resorufin dye directly correlates with the number of metabolically active cells. For each triplicate treatment the mean and standard deviation were calculated and analyzed via curve fitting software to determine the respective compound concentration resulting in 50% growth inhibition (GI50) values. For each compound GI50 values were typically determined from at least 2 entirely independent experiments.
OCI-LY3 cells were acquired through a license agreement with University Health Network, Toronto, Canada. Cells are cultivated in RPMI1640 media (Gibco, #61870-010, lot. 1894759), supplemented with 10% FCS (HyClone, GE #SH30066.03, lot AB217603), 2 mM L-Glutamine (BioConcept, #5-10K50-H, lot. LA03467P), 1 mM Sodium Pyruvate (BioConcept, #5-60F00-H, lot. LB10510P), 10 mM HEPES (Gibco, #15630-056, lot. 1854074), 1% Pen/Strep (BioConcept, #4-01F00-H, lot. LB04235P).

[3] = system: TMD8 cells; test: Resazurin cell viability assay in DLBCL cells (TMD8); conditions: TMD8 cells (BTK dependent), 50% growth inhibition, read-out: TMD8 Prol GI50
Method: as §1, §2, §3, §4, §5
TMD8 cells were acquired through a license agreement with Tokyo Medical and Dental University, Japan. Cells are cultivated in MEM Alpha (BioConcept, #1-23F01-I, lot. LB04262P) supplemented with 10% FCS (HyClone, GE #SH30066.03, lot AB217603), 2 mM L-Glutamine (BioConcept, #5-10K50-H, lot. LA03467P), 1% Pen/Strep (BioConcept, #4-01F00-H, lot. LB04235P).

T1 sequence (Q06187 whole entry): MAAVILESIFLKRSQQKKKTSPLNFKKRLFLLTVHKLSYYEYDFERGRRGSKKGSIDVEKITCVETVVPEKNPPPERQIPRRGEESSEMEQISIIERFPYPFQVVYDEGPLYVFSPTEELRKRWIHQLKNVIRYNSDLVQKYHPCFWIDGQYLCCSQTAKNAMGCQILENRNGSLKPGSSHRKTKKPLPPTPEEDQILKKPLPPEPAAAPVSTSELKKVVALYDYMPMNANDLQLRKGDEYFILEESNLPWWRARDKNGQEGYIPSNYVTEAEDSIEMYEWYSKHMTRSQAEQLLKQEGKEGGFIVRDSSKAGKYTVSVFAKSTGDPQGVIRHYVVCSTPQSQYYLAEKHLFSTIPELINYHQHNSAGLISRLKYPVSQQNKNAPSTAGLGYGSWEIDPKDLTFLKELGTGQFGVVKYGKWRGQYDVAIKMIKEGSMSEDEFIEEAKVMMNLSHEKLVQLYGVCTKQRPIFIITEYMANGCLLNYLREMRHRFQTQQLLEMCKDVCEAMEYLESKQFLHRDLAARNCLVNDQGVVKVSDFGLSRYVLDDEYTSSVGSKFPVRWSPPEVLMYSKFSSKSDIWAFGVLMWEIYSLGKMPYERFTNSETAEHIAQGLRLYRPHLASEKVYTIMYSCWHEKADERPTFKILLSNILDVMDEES
T1 sequence (Q96SW2 whole entry): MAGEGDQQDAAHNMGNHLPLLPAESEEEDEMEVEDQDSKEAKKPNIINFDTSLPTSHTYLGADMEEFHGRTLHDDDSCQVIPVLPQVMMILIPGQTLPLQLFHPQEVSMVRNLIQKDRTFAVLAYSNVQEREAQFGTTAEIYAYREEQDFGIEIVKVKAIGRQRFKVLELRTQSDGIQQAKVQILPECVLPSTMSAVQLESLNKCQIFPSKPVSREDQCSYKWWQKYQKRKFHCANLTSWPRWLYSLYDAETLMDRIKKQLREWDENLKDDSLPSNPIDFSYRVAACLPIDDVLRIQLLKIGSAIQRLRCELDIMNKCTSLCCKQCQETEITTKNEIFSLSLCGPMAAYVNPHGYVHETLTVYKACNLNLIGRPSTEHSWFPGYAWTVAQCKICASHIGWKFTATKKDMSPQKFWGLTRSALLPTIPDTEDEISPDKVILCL
T1 sequence (Q16531 whole entry partner): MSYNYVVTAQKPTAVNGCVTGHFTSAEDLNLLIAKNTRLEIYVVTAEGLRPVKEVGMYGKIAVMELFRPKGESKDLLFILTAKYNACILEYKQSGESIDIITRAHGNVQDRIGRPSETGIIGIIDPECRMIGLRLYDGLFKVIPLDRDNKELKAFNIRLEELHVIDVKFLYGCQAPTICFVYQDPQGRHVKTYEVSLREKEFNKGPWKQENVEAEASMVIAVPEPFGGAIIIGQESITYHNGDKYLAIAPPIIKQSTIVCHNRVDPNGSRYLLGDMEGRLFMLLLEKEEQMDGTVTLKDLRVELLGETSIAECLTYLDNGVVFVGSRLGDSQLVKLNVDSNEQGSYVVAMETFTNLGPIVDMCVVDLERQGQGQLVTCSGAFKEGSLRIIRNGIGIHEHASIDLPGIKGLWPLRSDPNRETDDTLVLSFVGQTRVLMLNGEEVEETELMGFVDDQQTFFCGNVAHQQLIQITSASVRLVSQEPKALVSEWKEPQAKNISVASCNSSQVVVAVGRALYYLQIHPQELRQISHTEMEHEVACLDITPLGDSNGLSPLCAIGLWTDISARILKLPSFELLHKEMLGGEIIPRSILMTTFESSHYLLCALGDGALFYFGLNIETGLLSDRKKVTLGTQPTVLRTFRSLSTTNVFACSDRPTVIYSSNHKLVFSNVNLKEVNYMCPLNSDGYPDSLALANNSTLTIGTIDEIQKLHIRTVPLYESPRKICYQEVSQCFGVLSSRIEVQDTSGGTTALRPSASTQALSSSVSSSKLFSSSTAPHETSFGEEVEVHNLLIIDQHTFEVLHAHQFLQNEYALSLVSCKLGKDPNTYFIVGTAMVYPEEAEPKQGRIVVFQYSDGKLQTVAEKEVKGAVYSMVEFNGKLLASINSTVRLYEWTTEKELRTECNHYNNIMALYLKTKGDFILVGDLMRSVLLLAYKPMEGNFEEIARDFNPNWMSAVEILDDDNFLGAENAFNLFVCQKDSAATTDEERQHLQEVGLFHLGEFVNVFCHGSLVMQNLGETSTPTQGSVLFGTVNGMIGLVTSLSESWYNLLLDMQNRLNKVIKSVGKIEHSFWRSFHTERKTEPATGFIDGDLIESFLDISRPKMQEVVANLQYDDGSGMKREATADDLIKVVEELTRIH

Structure (SMILES)	BTK deg Amax % [1] [%]	DC50 [1] [nM]	GI50 ([2]; Homo sapiens, OCI-Ly3, 72 h) [nM]	GI50 ([3]; Homo sapiens, TMD8, 72 h) [nM]	GI50 ([2]; 72 h) [nM]	GI50 ([3]; 72 h) [nM]
COc1ccc(C(=O)N2CCC(CCN3CCC(OCc4ccc(-c5cc6c(-c7cc(F)cc(NC(=O)N8CC(O)C(CC(C)C)C8)c7C)ncnc6[nH]5)cc4)CC3)CC2)cc1N1CCC(=O)NC1=O (racemic) [Compound 4, (cis-rac)-N-(3-(6-(4-(((1-(2-(1-(3-(2,4-Dioxotetrahydropyrimidin-1 (2H)-yl)-4-methoxybenzoyl)piperidin-4-yl)ethyl)piperidin-4-yl)oxy)methyl)phenyl)-7H-pyrrolo[2,3-d]pyrimidin-4-yl)-5-fluoro-2-methylphenyl)-3-hydroxy-4-isobutylpyrrolidine-1-carboxamide]	1.9	1.5	8220	0.34	–	–
COc1ccc(C(=O)N2CCC(CN3CCN(Cc4ccc(-c5cc6c(-c7cc(F)cc(NC(=O)N8CC(O)C(CC(C)C)C8)c7C)ncnc6[nH]5)cc4)CC3)CC2)cc1N1CCC(=O)NC1=O (racemic) [Compound 9, (cis-rac)-N-(3-(6-(4-((4-((1-(3-(2,4-Dioxotetrahydropyrimidin-1 (2H)-yl)-4-methoxybenzoyl)piperidin-4-yl)methyl)piperazin-1-yl)methyl)phenyl)-7H-pyrrolo[2,3-d]pyrimidin-4-yl)-5-fluoro-2-methylphenyl)-3-hydroxy-4-isobutylpyrrolidine-1-carboxamide]	6.3	1.7	7150	0.75	–	–
COc1ccc(C(=O)N2CCC3(CCN(Cc4ccc(-c5cc6c(-c7cc(F)cc(NC(=O)N8CC(O)C(CC(C)C)C8)c7C)ncnc6[nH]5)cc4)CC3)CC2)cc1N1CCC(=O)NC1=O (racemic) [Compound 23, (cis-rac)-N-(3-(6-(4-((9-(3-(2,4-Dioxotetrahydropyrimidin-1(2H)-yl)-4-methoxybenzoyl)-3,9-diazaspiro[5.5]undecan-3-yl)methyl)phenyl)-7H-pyrrolo[2,3-d]pyrimidin-4-yl)-5-fluoro-2-methylphenyl)-3-hydroxy-4-isobutylpyrrolidine-1-carboxamide]	3.3	6.1	–	–	> 10000	2.36
COc1ccc(C(=O)N2CCC(CCN3CCC(Oc4ccc(-c5cc6c(-c7cc(F)cc(NC(=O)N8C[C@H](CC(C)C)[C@@H](O)C8)c7C)ncnc6[nH]5)cc4)CC3)CC2)cc1N1CCC(=O)NC1=O [Compound 3, (3R,4S)—N-(3-(6-(4-((1-(2-(1-(3-(2,4-Dioxotetrahydropyrimidin-1(2H)-yl)-4-methoxybenzoyl)piperidin-4-yl)ethyl)piperidin-4-yl)oxy)phenyl)-7H-pyrrolo[2,3-d]pyrimidin-4-yl)-5-fluoro-2-methylphenyl)-3-hydroxy-4-isobutylpyrrolidine-1-carboxamide]	3	0.8	4480	0.19	–	–
COc1ccc(C(=O)N2CCC3(CCN(CCc4ccc(-c5cc6c(-c7cc(F)cc(NC(=O)N8C[C@@H](CC(C)C)[C@@H](O)C8)c7C)ncnc6[nH]5)cc4)CC3)CC2)cc1N1CCC(=O)NC1=O [Compound 7, (3R,4R)—N-(3-(6-(4-(2-(9-(3-(2,4-Dioxotetrahydropyrimidin-1(2H)-yl)-4-methoxybenzoyl)-3,9-diazaspiro[5.5]undecan-3-yl)ethyl)phenyl)-7H-pyrrolo[2,3-d]pyrimidin-4-yl)-5-fluoro-2-methylphenyl)-3-hydroxy-4-isobutylpyrrolidine-1-carboxamide]	3.7	1.5	> 10000	0.28	–	–
COc1ccc(C(=O)N2CCC(CN3CCC(COc4ccc(-c5cc6c(-c7cc(F)cc(NC(=O)N8C[C@H](CC(C)C)[C@@H](O)C8)c7C)ncnc6[nH]5)cc4)CC3)CC2)cc1N1CCC(=O)NC1=O [Compound 14, (3R,4S)—N-(3-(6-(4-((1-((1-(3-(2,4-Dioxotetrahydropyrimidin-1 (2H)-yl)-4-methoxybenzoyl)piperidin-4-yl)methyl)piperidin-4-yl)methoxy)phenyl)-7H-pyrrolo[2,3-d]pyrimidin-4-yl)-5-fluoro-2-methylphenyl)-3-hydroxy-4-isobutylpyrrolidine-1-carboxamide]	3.4	0.7	3820	0.24	–	–
CCOc1ccc(C(=O)N2CCC3(CCN(CCc4ccc(-c5cc6c(-c7cc(F)cc(NC(=O)N8C[C@H](CC(C)C)[C@@H](O)C8)c7C)ncnc6[nH]5)cc4)CC3)CC2)cc1N1CCC(=O)NC1=O [Compound 16, (3R,4S)—N-(3-(6-(4-(2-(9-(3-(2,4-dioxotetrahydropyrimidin-1(2H)-yl)-4-ethoxybenzoyl)-3,9-diazaspiro[5.5]undecan-3-yl)ethyl)phenyl)-7H-pyrrolo[2,3-d]pyrimidin-4-yl)-5-fluoro-2-methylphenyl)-3-hydroxy-4-isobutylpyrrolidine-1-carboxamide]	19	4.7	5220	0.26	–	–
